Assay results as given in patent US20160368879A1, “PHOTOACID GENERATOR, AND RESIN COMPOSITION FOR PHOTOLITHOGRAPHY” (SAN-APRO LTD., priority 2013, published 2016).

What was measured:
Format in all cases: physicochemical
[1] = Solvent solubility (butyl acetate, toluene or PGMEA); conditions: 25° C.
Method in brief: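 Test-tube titration at 25° C: 0.1 g photoacid generator, solvent (butyl acetate, toluene or PGMEA) added in 0.2 g portions until fully dissolved. Scored as not dissolved if still undissolved after 20 g solvent.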

[2] = Molar extinction coefficient of i-line (365 nm), UV-visible absorbance in acetonitrile; conditions: 0.25 mmol/L in acetonitrile, cell length 1 cm
Method in brief: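 Compound at 0.25 mmol/L in acetonitrile; UV-visible absorbance scanned 200–500 nm in a 1 cm path cell. ε365 calculated from the absorbance at 365 nm.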

[3] = Thermal decomposition temperature (TG/DTA, 2% weight reduction); conditions: point of 2% weight reduction; 10° C./minute from 30° C. to 500° C.; nitrogen atmosphere
Protocol: The synthesized photoacid generator was measured for the change in weight under a temperature increasing condition of 10° C./minute from 30° C. to 500° C. under a nitrogen atmosphere using a thermal gravimetric/differential thermal analyzer (TG/DTA 6200, available from Seiko Instruments Inc.), and a point where the weight was reduced by 2% was defined as the thermal decomposition temperature.

| Structure (SMILES) | Solvent solubility PGMEA [1] [wt %] | Solvent solubility Butyl acetate [1] [wt %] | Solvent solubility Toluene [1] [wt %] | Molar extinction coefficient [2] [L/mol/cm] | Thermal decomposition temperature [3] [°C] |
| --- | --- | --- | --- | --- | --- |
| c1ccc(Sc2ccc([S+](c3ccccc3)c3ccccc3)cc2)cc1 [A′-2, reference compound] | >30 | <0.5 | <0.5 | 80 | 340 |
| COc1cc2c3c(cccc3c1)C(=O)N(OS(=O)(=O)c1c(F)c(F)c(F)c(F)c1F)C2=O [Example A-28, 3-methoxy-1,8-naphthalimide pentafluorobenzenesulfonate] | 5 | 6.5 | 6 | 7500 | 240 |
| CC(C)(C)c1cc2c3c(cc(C(C)(C)C)cc3c1)C(=O)N(OS(=O)(=O)c1c(F)c(F)c(F)c(F)c1F)C2=O [Example A-33, 3,6-di-tert-butyl-1,8-naphthalimide pentafluorobenzenesulfonate] | 6 | 6.5 | 6 | 6500 | 245 |
